These results are taken from US7371888B2, “α-(Trifluoromethyl-substituted aryloxy, arylamino, arylthio or arylmethyl)-trifluoromethyl-substituted phenylacetic acids and derivatives as antidiabetic agents” (Metabolex, Inc., priority 2004, dated 2008).

This experiment deals with C57BL/6J ob/ob mice. Nature of the experiment: Anti-diabetic activity in the C57BL/6j ob/ob mice model (plasma glucose lowering, insulin level). To be noted: male C57BL/6J ob/ob mice, orally by gavage once a day for 1-4 days; for minimal effective dose: Mus musculus, po, glucose lowering, plasma glucose 6 hours after each dose, read-out: Potency; for Insulin Level compared with vehicle: drug-treated vs vehicle-treated. In kind it is in vivo. The protocol: The anti-diabetic activities of the compounds were evaluated in the C57BL/6j ob/ob Mice model. Male, 7-9 weeks old, C57BL/6J ob/ob mice were purchased from The Jackson Laboratory (Bar Harbor, Me., USA). Animals were housed (4-5 mice/cage) under standard laboratory conditions at 22±3° C. temperature and 50±20% relative humidity, and were maintained on a diet of Purina rodent chow and water ad libitum. Prior to treatment, blood was collected from the tail vein of each animal. Mice that had non-fasting plasma glucose levels between 250 and 500 mg/dl were used. Each treatment group consisted of 8-10 mice that were distributed so that the mean glucose levels were equivalent in each group at the start of the study. Mice were dosed orally by gavage once a day for 1-4 days with vehicle and one or more dose of test compound at a dose ranging from 5 to 125 mg/kg. Compounds were delivered in a liquid formulation containing 5% (v/v) dimethyl sulfoxide (DMSO), 1% (v/v) Tween 80® and 0.9% (w/v) methylcellulose. The gavage volume was 10 ml/kg. Blood samples were taken at 6 hours after the each dose and analyzed for plasma glucose. Food intake and body weight were measured daily. Plasma glucose concentrations were determined calorimetrically using a commercial glucose oxidase method (Sigma Chemical Co, St. Louis, Mo., USA). Significant difference between groups (comparing drug-treated to vehicle-treated) was evaluated using the Student unpaired t-test. Table 1 provides the relative potency of some selected compounds of the invention.

Bounds are passed on as bounds.

As to `CC(Oc1ccc(C(F)(F)F)cc1)(C(=O)O)c1ccc(C(F)(F)F)cc1` (centres unmarked) [Compound 121, 2-(4-Trifluoromethyl-phenoxy)-2-(4-trifluoromethyl-phenyl)-propionic acid], the minimal effective dose was at most 125 mg/kg and the “Insulin Level compared with vehicle” value is “Lower”.

For `OCC(Oc1ccc(C(F)(F)F)cc1Cl)c1ccc(C(F)(F)F)cc1` (centres unmarked) [Compound 128], the minimal effective dose is at most 125 mg/kg and the “Insulin Level compared with vehicle” value is “Lower”.

As for `O=C(O)C(Oc1ccc(C(F)(F)F)cn1)c1cccc(C(F)(F)F)c1` (centres unmarked) [Compound 100, (3-trifluoromethyl-phenyl)-(5-trifluoromethyl-pyridin-2-yloxy)-acetic acid], the minimal effective dose is at most 125 mg/kg and the “Insulin Level compared with vehicle” value is recorded as “Lower”.

Turning to `CC(=O)NCCOC(=O)C(Oc1ccc(C(F)(F)F)cc1)c1cccc(C(F)(F)F)c1` (centres unmarked) [Compound 136, (4-trifluoromethyl-phenoxy)-(3-trifluoromethyl-phenyl)-acetic acid 2-acetylamino-ethyl ester], the minimal effective dose is at most 125 mg/kg and the “Insulin Level compared with vehicle” value is reported as “Lower”.

Regarding `CC(=O)NCCOC(=O)C(Oc1cccc(C(F)(F)F)c1)c1ccc(C(F)(F)F)cc1` (centres unmarked) [Compound 142], the minimal effective dose is at most 125 mg/kg and the “Insulin Level compared with vehicle” value is “Lower”.

For `O=C(O)C(Oc1ccc(C(F)(F)F)cc1)c1cccc(C(F)(F)F)c1` (centres unmarked) [Compound 39, (4-Trifluoromethyl-phenoxy)-(3-trifluoromethyl-phenyl)-acetic acid], the “Insulin Level compared with vehicle” value is “Lower”.

As to `O=C(O)C(Oc1ccc(C(F)(F)F)cc1)c1cccc(C(F)(F)F)c1` (single isomer, unassigned; (-)) [(−)-39, (4-trifluoromethyl-phenoxy)-(3-trifluoromethyl-phenyl)-acetic acid], the “Insulin Level compared with vehicle” value is “Lower”.

In the case of `CC(=O)NCCOC(=O)C(Oc1cccc(C(F)(F)F)c1)c1ccccc1C(F)(F)F` (centres unmarked) [Compound 147], the minimal effective dose was over 125 mg/kg and the “Insulin Level compared with vehicle” value is given as “Lower”.

As to `O=C(O)C(Oc1cccc(C(F)(F)F)c1)c1ccc(C(F)(F)F)cc1` (centres unmarked) [Compound 86, (3-trifluoromethyl-phenoxy)-(4-trifluoromethyl-phenyl)-acetic acid], the minimal effective dose is at most 125 mg/kg and the “Insulin Level compared with vehicle” value is given as “Lower”.

On to `CC(Oc1ccc(C(F)(F)F)cc1)(C(=O)O)c1cccc(C(F)(F)F)c1` (centres unmarked) [Compound 120, 2-(4-trifluoromethyl-phenoxy)-2-(3-trifluoromethyl-phenyl)-propionic acid], for which the minimal effective dose was at most 125 mg/kg and the “Insulin Level compared with vehicle” value is “Lower”.

For the compound `O=C(O)C(Oc1cc(C(F)(F)F)cc(C(F)(F)F)c1)c1ccc(C(F)(F)F)cc1` (centres unmarked) [Compound 81], the minimal effective dose was at most 125 mg/kg and the “Insulin Level compared with vehicle” value is “Lower”.

`O=C(O)C(Oc1ccc(C(F)(F)F)cc1)c1cccc(C(F)(F)F)c1` (single isomer, unassigned; (+)) [(+)-39, (4-trifluoromethyl-phenoxy)-(3-trifluoromethyl-phenyl)-acetic acid]: the “Insulin Level compared with vehicle” value is “Lower”.

With `CC(=O)NCCOC(=O)C(Oc1cc(C(F)(F)F)cc(C(F)(F)F)c1)c1ccc(C(F)(F)F)cc1` (centres unmarked) [Compound 143], the minimal effective dose is at most 125 mg/kg and the “Insulin Level compared with vehicle” value was “Lower”.

Take `O=C(O)C(Oc1ccc(C(F)(F)F)cc1)c1ccc(C(F)(F)F)cc1` (centres unmarked) [Compound 83, (4-Trifluoromethyl-phenoxy)-(4-trifluoromethyl-phenyl)-acetic acid]: the minimal effective dose was at most 125 mg/kg and the “Insulin Level compared with vehicle” value was “Lower”.

On to `CC(=O)NCCOC(=O)C(Oc1ccccc1C(F)(F)F)c1ccc(C(F)(F)F)cc1` (centres unmarked) [Compound 146], for which the minimal effective dose is over 125 mg/kg and the “Insulin Level compared with vehicle” value was “Lower”.

Take `O=C(O)C(Oc1ccc(C(F)(F)F)cc1Cl)c1cccc(C(F)(F)F)c1` (centres unmarked) [Compound 85, (2-Chloro-4-trifluoromethyl-phenoxy)-(3-trifluoromethyl-phenyl)-acetic acid]: the minimal effective dose was at most 125 mg/kg and the “Insulin Level compared with vehicle” value is on record as “Lower”.

As to `O=C(O)C(Oc1ccc(C(F)(F)F)cc1Cl)c1ccc(C(F)(F)F)cc1` (centres unmarked) [Compound 89, (2-Chloro-4-trifluoromethyl-phenoxy)-(4-trifluoromethyl-phenyl)-acetic acid], the minimal effective dose was at most 125 mg/kg and the “Insulin Level compared with vehicle” value is reported as “Lower”.

As for `CC(=O)NCCOC(=O)C(Oc1cccc(C(F)(F)F)c1)c1cccc(C(F)(F)F)c1` (centres unmarked) [Compound 144], the minimal effective dose is at most 125 mg/kg and the “Insulin Level compared with vehicle” value is “Lower”.

Take `CC(=O)NCCOC(=O)C(Oc1ccc(C(F)(F)F)cc1)c1ccc(C(F)(F)F)cc1` (centres unmarked) [Compound 145]: the minimal effective dose is at most 125 mg/kg and the “Insulin Level compared with vehicle” value is “Lower”.
